Laboratory results as given in paper PMC5884943, “Discovery of Novel Inhibitors of Indoleamine 2,3-Dioxygenase 1 Through Structure-Based Virtual Screening” (Frontiers in Pharmacology, 2018).

Target: T1, human IDO1 protein (Homo sapiens, UniProt P14902)
T1 construct: purchased ChemPartner Lot; No. 20160706
Assay: Enzymatic IDO1 assay (Absorbance 321 assay)
Format: biochemical
Details: for Avg_Inh (%) @ 50uM: average inhibition, Table S2; for Background (%): background signal of the compound in the absorbance assay; for inhibition at 20 µM / Inhibition ratio (%) @ 20 μM: 20 μM compound; for inhibition at 20 µM: read-out: Inhibition ratio (%) @ 20 μM
Experimental: The standard assay mixture contained modified potassium phosphate buffer at pH 6.5, 100 μM L-tryptophan (Sigma, Cat. […] No. […]). […] Then the assay plate was read at OD321 kinetically in Spectramax. […] Fit the data in […]5.0 software to obtain IC50-values using Equation (2): (2) Y=Bottom+Top-Bottom/1+10^(logIC50-X)×HillSlope where Y stands for inhibition percentage and X stands for compound concentration. All determinations were carried out in duplicate.

T1 sequence (P14902 whole entry): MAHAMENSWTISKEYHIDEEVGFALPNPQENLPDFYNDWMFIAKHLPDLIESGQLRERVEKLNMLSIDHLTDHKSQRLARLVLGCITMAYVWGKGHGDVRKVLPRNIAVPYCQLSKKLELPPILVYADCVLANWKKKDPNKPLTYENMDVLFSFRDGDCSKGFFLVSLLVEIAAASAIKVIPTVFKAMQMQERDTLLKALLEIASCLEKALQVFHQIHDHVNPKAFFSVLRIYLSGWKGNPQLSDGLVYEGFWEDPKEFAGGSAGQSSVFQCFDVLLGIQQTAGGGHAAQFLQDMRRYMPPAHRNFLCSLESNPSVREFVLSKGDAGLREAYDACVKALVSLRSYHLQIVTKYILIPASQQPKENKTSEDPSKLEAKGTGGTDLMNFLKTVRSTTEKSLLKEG

| SMILES | Avg_Inh (%) @ 50uM | Background (%) | other results |
| --- | --- | --- | --- |
| COc1ccc2ccccc2c1/C=C(\C#N)c1nc2ccccc2[nH]1 [DCI-026] | 98.78% | 66.01% |  |
| O=S(=O)(c1ccc(N=Cc2c(O)ccc3ccccc23)cc1)N1CCCCC1 [DCI-100] | 94.68% | 57.16% |  |
| Cc1ccc(/C=N/Nc2nc3ccccc3[nH]c2=O)cc1 [DCI-023] | -2.26% | 53.84% |  |
| Cc1cc(C)c2c(=O)cc(C(=O)Nc3cc(-c4ccc(F)cc4)no3)oc2c1 [DCI-060] | 79.74% | 59.25% |  |
| c1csc(CNCCCc2nc3ccccc3[nH]2)c1 [DCI-019] | -8.21% | 33.33% |  |
| CN(CCCNc1cc(=O)oc2ccccc12)C(=O)c1ccc(F)cc1 [DCI-035] | 2.22% | 46.21% |  |
| COc1cc2sc3c(=O)[nH]c4ccccc4c3c2cc1OC [DCI-029] | -6.51% | 40.56% |  |
| CC(=O)Nc1cccc2ccc3c(c12)CN(Cc1ccccc1)CO3 [DC-I02803] |  |  | inhibition at 20 µM: -11.2%; IDO1 inhibitory activity (in words) (SAR discussion): inactive |
| CCCCOc1cccc(-c2c(O)ccc3ccccc23)c1 [DC-I02811] |  |  | inhibition at 20 µM: 8.19% |
| COc1ccc(C2C(C#N)=C(N)Oc3n[nH]c(-c4ccc(Cl)cc4)c32)cc1O (stereo not shown) [DCI-098] | 4.10% | 35.87% |  |
| COc1ccc(C(N)=O)cc1NS(=O)(=O)c1cccc2cccnc12 [DCI-016] | 5.08% | 38.92% |  |
| COc1cc(C(=O)Nc2ccc(S(N)(=O)=O)cc2)cc(OC)c1OC [DCI-088] | -0.32% | 43.06% |  |
| COc1ccc2ccccc2c1CNC(C)c1ccccc1 (stereo not shown) [DCI-091] | -6.47% | 41.00% |  |
| Cc1sc2nn[nH]c(=O)c2c1C [DCI-027] | 43.67% | 56.25% |  |
| COc1ccc2ccccc2c1/C=N/NC(N)=S [DCI-084] | 35.60% | 64.61% |  |
| CC1CCCN(C(C)CS(=O)(=O)c2ccc3ccccc3c2)C1 (stereo not shown) [DCI-021] | -2.20% | 37.17% |  |
| COc1ccc2oc(C(O)c3c(C)oc4ccc(OC)cc34)cc2c1 (stereo not shown) [DCI-056] | 55.55% | 43.42% |  |
| Cc1ccc(C(C)C)cc1C(=O)CC1(O)C(=O)N(C)c2ccc(Br)cc21 (stereo not shown) [DCI-014] | 28.34% | 41.98% |  |
| CC(O)CNCc1ccc(OCc2ccc3c(c2)OCCO3)cc1 (stereo not shown) [DCI-018] | -2.06% | 34.42% |  |

| SMILES | Avg_Inh (%) @ 50uM | Background (%) | other results |
| --- | --- | --- | --- |
| Cn1c(=O)c([N+](=O)[O-])c(Nc2ccc(Cl)cc2)c2ccccc21 [DCI-066] | 24.55% | 53.30% |  |
| Cc1ccc(C2C(C#N)=C(N)Oc3ccc4ccc(O)cc4c32)cc1 (stereo not shown) [DCI-069] | 79.20% | 42.53% |  |
| COc1cccc(-c2[nH]nc3c2C(c2ccccc2F)C(C#N)=C(N)O3)c1 (stereo not shown) [DCI-008] | 22.90% | 42.25% |  |
| Cc1cc(=O)c2ccc(C(F)(F)F)cc2[nH]1 [DCI-038] | 6.52% | 60.07% |  |
| COc1ccc(/C=C\c2nccc3ccccc23)cc1OC [DCI-011] | 2.22% | 51.96% |  |
| O=C(NC(=S)Nc1c(O)ccc2ccccc12)c1ccccc1I [DC-I02807] |  |  | inhibition at 20 µM: 59.6%; IC50 (IDO1 enzymatic level): 25 µM |
| O=C1c2ccccc2NC(c2cccc([N+](=O)[O-])c2)N1O (stereo not shown) [DCI-058] | 4.69% | 37.75% |  |
| Cc1cc(=O)oc2cc(OCC(O)Cn3c(C)nc4ccccc43)ccc12 (stereo not shown) [DCI-094] | -10.06% | 75.33% |  |
| O=[N+]([O-])C1C(O)c2ccccc2OC1c1ccccc1 (stereo not shown) [DCI-031] | 13.99% | 39.14% |  |
| CC(=O)c1[nH]c2ccccc2c1C(C)=O [DCI-053] | 3.68% | 43.33% |  |
| Clc1ccc2[nH]cc(-c3nnnn3-c3ccccc3)c2c1 [DCI-004] | 49.29% | 38.90% |  |
| O=C(NC(=S)Nc1cccc2cc(O)ccc12)c1ccco1 [DC-I02810] |  |  | inhibition at 20 µM: 15.6% |
| COc1ccc(C(=O)NC(=S)Nc2cccc3cc(O)ccc23)cc1OC [DC-I02809] |  |  | inhibition at 20 µM: 17.6% |
| O=c1c(-c2nc3ccccc3[nH]2)coc2cc(O)ccc12 [DCI-025] | 9.07% | 66.83% |  |
| COc1ccc2nc(C(C)O)[nH]c2c1 (stereo not shown) [DCI-097] | -2.09% | 37.58% |  |
| CC(=O)c1nc2ccccc2[nH]1 [DCI-037] | 24.85% | 60.63% |  |
| O=C(NCCCNC(=O)c1cc2ccccc2[nH]1)c1ccc(F)cc1 [DCI-034] | 5.04% | 42.24% |  |
| Cc1ccc(C)c(NS(=O)(=O)c2ccc3ccccc3c2)c1 [DCI-096] | 58.68% | 49.37% |  |
| CCCc1[nH]nc2c1C(c1cccc(O)c1)C(C#N)=C(N)O2 (stereo not shown) [DCI-043] | 1.84% | 30.60% |  |

Second part, led by results:

| Avg_Inh (%) @ 50uM | Background (%) | SMILES | other results |
| --- | --- | --- | --- |
| 1.56% | 40.57% | COc1ccc2ccccc2c1CNc1ncn[nH]1 [DCI-092] |  |
| 77.96% | 50.53% | O=C(COc1ccc2ccccc2c1)Nc1cccc(Cl)c1 [DCI-086] |  |
| 11.57% | 45.02% | CCCC1CCc2c(c3ccccc3[nH]c2=O)O1 (stereo not shown) [DCI-030] |  |
| 64.05% | 54.63% | O=c1/c(=C/c2c(O)ccc3ccccc23)sc2n1CCCN=2 [DCI-073] |  |
| 20.11% | 40.12% | O=C(NCC1CCCO1)c1ccc(COc2ccc3ccccc3c2)cc1 (stereo not shown) [DCI-015] |  |
| 17.41% | 49.85% | COc1ccc(C(=O)c2c[nH]cc2-c2ccccc2)cc1 [DCI-059] |  |
| 63.45% | 54.35% | O=C(CSc1ncnc2sc3c(c12)CCC3)Nc1ccccc1 [DCI-061] |  |
| 22.41% | 39.05% | CC(C)(C)NC(=O)Cc1coc2ccc3ccccc3c12 [DCI-071] |  |
| -1.55% | 43.56% | O=C(Cc1coc2ccc3ccccc3c12)N1CCCC1 [DCI-095] |  |
| 72.23% | 50.76% | CCCn1c(=O)c(C(=O)Nc2ccccc2N)c(O)c2ccccc21 [DCI-041] |  |
| 63.18% | 44.38% | O=C(COC(=O)c1ccc2ccccc2n1)c1ccc(Cl)cc1 [DC-I046] | Inhibition ratio (%) @ 20 μM: 28.10% |
| -2.26% | 35.32% | CCC(C(=O)Nc1cccc(C(C)O)c1)c1ccccc1 (stereo not shown) [DCI-082] |  |
| -3.88% | 42.54% | O=c1cc(NCCN2CCCC2)c2ccccc2o1 [DCI-047] |  |
| -6.95% | 38.30% | O=c1[nH]c(CN2CCOCC2)nc2ccccc12 [DCI-081] |  |
| 40.66% | 31.86% | NNC(=O)c1ccc(COc2ccc3c(c2)CCC3)cc1 [DCI-040] |  |
| 42.86% | 56.72% | Cc1cc(=O)oc2cc(OCCSc3ccccc3)ccc12 [DCI-012] |  |

| Avg_Inh (%) @ 50uM | Background (%) | SMILES | other results |
| --- | --- | --- | --- |
| -0.96% | 35.16% | c1ccc(CNCC2OCCc3ccccc32)cc1 (stereo not shown) [DCI-101] |  |
| 45.39% | 56.24% | CC(C)c1ccc(O)c(C(=O)c2cnn(-c3ccccc3)c2)c1 [DCI-024] |  |
| 4.76% | 38.66% | Cc1ccc(C)c(C(=O)CSc2ncnc3nc[nH]c23)c1 [DCI-013] |  |
| 6.57% | 36.33% | O=C1NN(c2ncnc3sc4c(c23)CCCC4)C(=O)c2cccc3cccc1c23 [DCI-064] |  |
| 11.86% | 36.51% | COc1ccc(CNC(=O)COc2ccc3ccccc3c2)cc1 [DCI-005] |  |
| 37.65% | 48.33% | Cc1sc2ncnc(SCC(=O)Nc3ccc(S(N)(=O)=O)cc3)c2c1C [DCI-017] |  |
| -3.23% | 48.38% | O=C(O)c1ccc(Cn2nnc3cc4ccccc4cc32)cc1 [DCI-080] |  |
| 44.52% | 40.43% | CCOc1nccc2sc3ccccc3c12 [DCI-044] |  |
| 76.32% | 74.58% | Cc1cccc(NC(=S)NC(=O)c2cc3ccccc3o2)n1 [DCI-036] |  |
| 81.62% | 44.08% | c1ccc2cc(OCc3nc4ccccc4s3)ccc2c1 [DCI-002] |  |
| 1.65% | 31.42% | CC(Oc1ccccc1)C(=O)N1CCc2ccccc21 (stereo not shown) [DCI-049] |  |
| 80.83% | 43.32% | Cc1cccc(-c2nnc(SCC(=O)Nc3c(C)cc(C)cc3C)o2)c1 [DC-I102] | Inhibition ratio (%) @ 20 μM: 15.17% |
| 2.13% | 35.52% | O=C(c1ccc(OCCc2ccccc2)cc1)N1CCCC1 [DCI-093] |  |
| 7.58% | 71.51% | COc1ccc(-c2nc(=O)cc(-c3ccccc3)o2)cc1 [DCI-048] |  |
| 74.65% | 49.90% | O=[N+]([O-])c1ccccc1Sc1c(O)ccc2ccccc12 [DCI-072] |  |
| -9.13% | 42.64% | Nc1ncnc2sc3c(c12)CCC3 [DCI-001] |  |
